Test results published in patent publication US11576944B2, “Grape extracts and methods relating thereto” (priority 2016, dated 2023).
Entries after “also recorded” stand apart in the source; their conditions may differ.

Experiments:
[1] = system: MCF7 human ER+ breast tumors; experiment: MCF7 ER+ breast tumors in athymic mice, with tamoxifen; assay type: in vivo, mouse; details: 5 weeks
Procedure: The mammary fat pads of athymic mice were injected with MCF7 human ER+ cells (1×10^6 cells) and tumor growth was measured every third day using a caliper.
The 4th inguinal mammary pads of athymic mice (female, 15-20 g, 5-6 weeks of age) were injected with 1×10^6 actively growing ZR-75-1 or MCF7 human ER+ breast cancer cells. The mice were group housed in cages with HEPA-filtered air on 12-h light/dark cycles and were fed regular rat chow ad libitum. Tumor size was measured twice a week in conscious animals, using a caliper, and tumor volume was calculated using the formula for a semi-ellipsoid (4/3πr^3)/2)]. […] After 7 weeks of treatment for the mice containing ZR-75-1 human ER+ breast tumors or 5 weeks of treatment for the mice containing MCF7 ER+ breast tumors, the mice were sacrificed and the tumors were removed and weighed.

[2] = system: ZR-75-1 human ER+ breast tumors; experiment: ZR-75-1 ER+ breast tumors in athymic mice, with tamoxifen; assay type: in vivo, mouse; details: 7 weeks
Procedure: The mammary fat pads of athymic mice were injected with ZR-75-1 ER+ cells (1×10^6 cells), and tumor growth was measured every third day using a caliper.
Sections were incubated with an antibody to Ki67, a marker of proliferation.
The 4th inguinal mammary pads of athymic mice (female, 15-20 g, 5-6 weeks of age) were injected with 1×10^6 actively growing ZR-75-1 or MCF7 human ER+ breast cancer cells. […] Tumor size was measured twice a week in conscious animals, using a caliper, and tumor volume was calculated using the formula for a semi-ellipsoid (4/3πr^3)/2)]. […] After 7 weeks of treatment for the mice containing ZR-75-1 human ER+ breast tumors or 5 weeks of treatment for the mice containing MCF7 ER+ breast tumors, the mice were sacrificed and the tumors were removed and weighed.

[3] = system: angiotensin II (Ang II)-induced hypertension; experiment: Ang II-induced hypertension and cardiac damage in rats; assay type: in vivo, rat; details: Ang II alone 24 μg/kg/h via osmotic mini-pump, at 4 weeks (from 120.4±2.4)
Procedure: The effect of p-MGE on hypertension and hypertension-induced cardiac damage was measured in rats with angiotensin II (Ang II)-induced hypertension. Sprague-Dawley rats (male, 8-12 weeks of age) were treated for 4 weeks with regular drinking water (Control), p-MGE alone (0.2 mg/mL of total phenolics in their drinking water), Ang II alone (24 μg/kg/h via implanted osmotic mini-pump) or p-MGE and Ang II. For a 250 g rat, this amount of p-MGE corresponds to approximately 20 mg phenolics/kg/day. Administration of p-MGE was initiated 1 week prior to treatment with Ang II. Blood pressure was recorded weekly by tail-cuff plethysmography, at the same time of day by the same individual. […] Scans to quantify cardiac parameters were taken in M mode parasternal short axis view at mid-papillary level, Tissue Doppler in 4 chamber view at the mitral annulus, and pulse wave Doppler in 4 chamber view to measure transmitral inflow. The ejection fraction of the heart and fractional shortening were measured in M mode parasternal short axis view at the mid-papillary level, using the VisualSonics Vevo 2100 High-Resolution Imaging System, as a measure of systolic function. […] Diastolic function was measured as e′, to assess the relaxation of the left ventricle, and E/e′, to assess the filling pressure of the left ventricle. […]

[4] = p-MGE 0.1 mg phenolics/mL drinking water, tamoxifen ~32 mg/kg/d in chow, or both
[5] = p-MGE 0.1 mg phenolics/mL, tamoxifen ~32 mg/kg/d, or both

Row | Compound | tumor volume / growth [1, 4] | tumor weight [1, 5] | tumor volume / growth [2, 4] | Ki67 positive cells in tumor sections [2, 5] | tumor weight [2, 5] | systolic blood pressure (tail cuff) [3]
1 | CC/C(=C(\c1ccccc1)c1ccc(OCCN(C)C)cc1)c1ccccc1 [tamoxifen] | reduced the growth of both ER+ tumors; also recorded: also reduced tumor size | also reduced tumor weight | reduced the growth of both ER+ tumors; also recorded: also reduced tumor size | associated with a reduction in the number of cells which were positive for the proliferation marker Ki67; also recorded: also significantly reduced proliferation | also reduced tumor weight | 
2 | angiotensin II (DRVYIHPF; Angiotensin-2; UniProt P01015 25-32, looked up) [Ang II, used to induce hypertension in rats] |  |  |  |  |  | 213.1±6.8 mm Hg
